This is an account of results in patent US20090048301A1 (IMCLONE SYSTEMS INCORPORATED, priority 2003, published 2009).

This experiment concerns bovine tubulin. The experiment can be described thus: In vitro tubulin polymerization assay (turbidity at 340 nm). To be noted: 10 μM compound, 30 minute data point, vs 1% DMSO control. It counts as biochemical. Here is the method: Briefly, tubulin polymerization is a kinetic process that is temperature-dependent and requires GTP and was performed as follows. Soluble tubulin dimers polymerize into microtubules upon warming, and polymerization in vitro correlates with an increase in turbidity (measured at 340 nm). Lyophilized bovine tubulin (HTS Tubulin—97% tubulin, <3% MAPs—Cytoskeleton Inc.) was ressuspended in G-PEM buffer (80 mM PIPES pH 7, 1 mM EGTA, 1 mM MgCl2, 1 mM GTP, 5% glycerol) to a final concentration of 3 mg/ml and kept at 4° C. Compounds in 100× stock solutions in DMSO were dotted to pre-warmed 96-well plates (Corning Costar 3696), the plates were transferred to a 37° C. plate reader (SPECTRAmax Plus, Molecular Devices), cold tubulin was added to the wells, and the plates were shaken for mixing. The absorbance at 340 nm was determined at one minute intervals for 30 minutes. Kinetic curves with 30 points each were collected for each compound, and the dynamic range was between 0 and 0.4 OD units. The percentage inhibition values were calculated using the 30 minute data point and based on control samples (treated with 1% DMSO only). The assay is a modified version of the HTS kit sold by Cytoskeleton (1830 S. Acoma St., Denver, Colo.), adapted to maximize throughput and reduce time, without reduction in dynamic range or sensitivity, while retaining the ability to detect compounds that inhibit or enhance tubulin polymerization.
Tubulin polymerization is a kinetic process that is temperature-dependent and requires GTP. Soluble tubulin dimers polymerize into microtubules upon warming, and polymerization in vitro correlates with an increase in turbidity (measured at 340 nm). Liophilized bovine tubulin (HTS Tubulin—97% tubulin, <3% MAPs—Cytoskeleton Inc.) was ressuspended in G-PEM buffer (80 mM PIPES pH 7, 1 mM EGTA, 1 mM MgCl2, 1 mM GTP, 5% glycerol) to a final concentration of 3 mg/ml and kept at 4° C. Compounds in 100× stock solutions in DMSO were dotted to pre-warmed 96-well plates (Corning Costar 3696), the plates were immediately transferred to a 37° C. plate reader (SPECTRAmax Plus, Molecular Devices), cold tubulin was added to the wells, plates were shaken for mixing, and absorbance at 340 nm was read every minute for 30 minutes. Kinetic curves with 30 points each were collected for each compound, and the dynamic range was between 0 and 0.4 OD units. Percentage inhibition values were calculated using the 30 minute data point, based on control samples (treated with 1% DMSO only). This assay is a modified version of the HTS kit sold by Cytoskeleton, adapted to maximize throughput and reduce time, without reduction in dynamic range or sensitivity, while retaining the ability to detect compounds that inhibit or enhance tubulin polymerization.

For the compound `COc1cc(Nc2ncccc2-c2nnc(-c3ccc4c(c3)OCO4)[nH]2)cc(OC)c1` [Compound 93, [3-(5-Benzo[1,3]dioxol-5-yl-4H-[1,2,4]triazol-3-yl)-pyridin-2-yl]-(3,5-dimethoxy-phenyl)-amine], the “Tubulin Assay: percent inhibition at 10 μM based on 30 minute data” value (shortened to “Tubulin Assay: percent inhibition”) is listed as 28%.

`COc1cc(Nc2ncccc2-c2nnc(Nc3cccc(NCC4CCOCC4)c3)[nH]2)cc(OC)c1` [Compound 61, N-{5-[2-(3,5-Dimethoxy-phenylamino)-pyridin-3-yl]-4H-[1,2,4]triazol-3-yl}-N′-(tetrahydro-pyran-4-ylmethyl)-benzene-1,3-diamine]: the “Tubulin Assay: percent inhibition” value is reported as 24%.

In the case of `COc1cc(Nc2ncccc2-c2nnc(Nc3cccc(N)c3)[nH]2)cc(OC)c1` [Compound 60b, N-{5-[2-(3,5-dimethoxy-phenylamino)-pyridin-3-yl]-4H-[1,2,4]triazol-3-yl}-benzene-1,3-diamine], the “Tubulin Assay: percent inhibition” value amounted to 39%.

Regarding `FC(F)(F)c1cccc(-c2nnc(-c3ccccc3NCc3ccc4c(c3)OCCO4)[nH]2)c1` [Compound 150, (2,3-Dihydro-benzo[1,4]dioxin-6-ylmethyl)-{2-[5-(3-trifluoromethyl-phenyl)-4H-[1,2,4]triazol-3-yl]-phenyl}-amine], the “Tubulin Assay: percent inhibition” value is recorded as 24%.

In the case of `CS(=O)(=O)c1ccc(-c2nnc(-c3cccnc3NCc3ccc(F)cc3)o2)cc1` [Compound 212, (4-Fluoro-benzyl)-{3-[5-(4-methanesulfonyl-phenyl)-[1,3,4]oxadiazol-2-yl]-pyridin-2-yl}-amine], the “Tubulin Assay: percent inhibition” value was 38%.

Regarding `c1ccc(-c2cnc(Nc3ccc4c(c3)OCCO4)o2)c(NCc2ccc3c(c2)OCCO3)c1` [Compound 245, (2,3-Dihydro-benzo[1,4]dioxin-6-yl)-(5-{2-[(2,3-dihydro-benzo[1,4]dioxin-6-ylmethyl)-amino]-phenyl}-oxazol-2-yl)-amine], the “Tubulin Assay: percent inhibition” value is 93%.

For the compound `CN(C)c1ccc(-c2nnc(Nc3ccc4c(c3)OCCO4)o2)c(NCc2ccc3c(c2)OCO3)c1` [Compound 232, (5-{2-[(Benzo[1,3]dioxol-5-ylmethyl)-amino]-4-dimethylamino-phenyl}-[1,3,4]oxadiazol-2-yl)-(2,3-dihydro-benzo[1,4]dioxin-6-yl)-amine], the “Tubulin Assay: percent inhibition” value is 26%.

Consider `COc1ccc(CNc2nnc(-c3ccccc3NCc3ccncc3)[nH]2)cc1` [Compound 113, (4-Methoxy-benzyl)-(5-{2-[(pyridin-4-ylmethyl)-amino]-phenyl}-4H-[1,2,4]triazol-3-yl)-amine], for which the “Tubulin Assay: percent inhibition” value came out at 24%.

As to `FC(F)(F)Oc1cccc(-c2nnc(-c3ccccc3NCc3ccc4c(c3)OCCO4)[nH]2)c1` [Compound 142, (2,3-Dihydro-benzo[1,4]dioxin-6-ylmethyl)-{2-[5-(3-trifluoromethoxy-phenyl)-4H-[1,2,4]triazol-3-yl]-phenyl}-amine], the “Tubulin Assay: percent inhibition” value was 20%.

For the compound `COc1cc(CNc2ncccc2-c2nnc(Nc3cccc(F)c3)o2)cc(OC)c1` [Compound 184, (3,5-Dimethoxy-benzyl)-{3-[5-(3-fluoro-phenylamino)-[1,3,4]oxadiazol-2-yl]-pyridin-2-yl}-amine], the “Tubulin Assay: percent inhibition” value was found to be 23%.

As to `c1cnc(NCc2ccc3c(c2)OCCO3)c(-c2nnc(Nc3ccc4c(c3)OCO4)[nH]2)c1` [Compound 34, {3-[5-(Benzo[1,3]dioxol-5-ylamino)-4H-[1,2,4]triazol-3-yl]-pyridin-2-yl}-(2,3-dihydro-benzo[1,4]dioxin-6-ylmethyl)-amine], the “Tubulin Assay: percent inhibition” value worked out at 69%.

Consider `CS(=O)(=O)c1ccc(-c2nnc(-c3cccnc3NCc3cccc(F)c3)o2)cc1` [Compound 214, (3-Fluoro-benzyl)-{3-[5-(4-methanesulfonyl-phenyl)-[1,3,4]oxadiazol-2-yl]-pyridin-2-yl}-amine], for which the “Tubulin Assay: percent inhibition” value was found to be 52%.

In the case of `COc1cc(CNc2cc(C(F)(F)F)ccc2-c2nnc(Nc3ccc4c(c3)OCO4)[nH]2)cc(OC)c1` [Compound 126, Benzo[1,3]dioxol-5-yl-{5-[2-(3,5-dimethoxy-benzylamino)-4-trifluoromethyl-phenyl]-4H-[1,2,4]triazol-3-yl}-amine], the “Tubulin Assay: percent inhibition” value came to 93%.

In the case of `CS(=O)(=O)c1ccc(-c2nnc(-c3cccnc3NCCc3c[nH]cn3)[nH]2)cc1` [Compound 91, [2-(1H-Imidazol-4-yl)-ethyl]-{3-[5-(4-methanesulfonyl-phenyl)-4H-[1,2,4]triazol-3-yl]-pyridin-2-yl}-amine], the “Tubulin Assay: percent inhibition” value is 29%.

`c1ccc(-c2nnc(Nc3ccc4c(c3)OCCO4)o2)c(NCc2cncnc2)c1` [Compound 226, (2,3-Dihydro-benzo[1,4]dioxin-6-yl)-(5-{2-[(pyrimidin-5-ylmethyl)-amino]-phenyl}-[1,3,4]oxadiazol-2-yl)-amine]: the “Tubulin Assay: percent inhibition” value stood at 94%.

Turning to `COc1cccc(CNc2ncccc2-c2nnc(Nc3ccc4c(c3)OCCO4)[nH]2)c1` [Compound 52, {3-[5-(2,3-Dihydro-benzo[1,4]dioxin-6-ylamino)-4H-[1,2,4]triazol-3-yl]-pyridin-2-yl}-(3-methoxy-benzyl)-amine], the “Tubulin Assay: percent inhibition” value turned out to be 35%.

With `COc1cc(Nc2ncccc2-c2nnc(Nc3cccc(NCc4ccc5c(c4)OCO5)c3)[nH]2)cc(OC)c1` [Compound 60, N-Benzo[1,3]dioxol-5-ylmethyl-N′-{5-[2-(3,5-dimethoxy-phenylamino)-pyridin-3-yl]-4H-[1,2,4]triazol-3-yl}-benzene-1,3-diamine], the “Tubulin Assay: percent inhibition” value came out at 99%.

In the case of `CN(C)c1ccc(-c2nnc(Nc3ccc4c(c3)OCCO4)o2)c(NCc2cccnc2)c1` [Compound 229, (2,3-Dihydro-benzo[1,4]dioxin-6-yl)-(5-{4-dimethylamino-2-[(pyridin-3-ylmethyl)-amino]-phenyl}-[1,3,4]oxadiazol-2-yl)-amine], the “Tubulin Assay: percent inhibition” value came out at 32%.

In the case of `c1cnc(OCc2ccc3c(c2)OCO3)c(-c2nnc(Nc3ccc4c(c3)OCO4)o2)c1` [Compound 208, Benzo[1,3]dioxol-5-yl-{5-[2-(benzo[1,3]dioxol-5-ylmethoxy)-pyridin-3-yl]-[1,3,4]oxadiazol-2-yl}-amine], the “Tubulin Assay: percent inhibition” value was 44%.

Regarding `c1ccc(-c2nnc(Nc3ccc4c(c3)OCCO4)o2)c(NCc2ncc[nH]2)c1` [Compound 220, (2,3-Dihydro-benzo[1,4]dioxin-6-yl)-(5-{2-[(1H-imidazol-2-ylmethyl)-amino]-phenyl}-[1,3,4]oxadiazol-2-yl)-amine], the “Tubulin Assay: percent inhibition” value is given as 79%.

As to `FC(F)(F)c1cccc(-c2nnc(-c3cccnc3NCc3ccc4c(c3)OCO4)[nH]2)c1` [Compound 83, Benzo[1,3]dioxol-5-ylmethyl-{3-[5-(3-trifluoromethyl-phenyl)-4H-[1,2,4]triazol-3-yl]-pyridin-2-yl}-amine], the “Tubulin Assay: percent inhibition” value was 25%.

Regarding `O=[N+]([O-])c1ccccc1-c1nnc(Nc2ccc3c(c2)OCCO3)[nH]1` [Compound 127a, (2,3-Dihydro-benzo[1,4]dioxin-6-yl)-[5-(2-nitro-phenyl)-4H-[1,2,4]triazol-3-yl]-amine], the “Tubulin Assay: percent inhibition” value was found to be 22%.
